# Test results from article PMC9137581, “Identification of a Novel Class of Anti-Melanogenic Compounds, (Z)-5-(Substituted benzylidene)-3-phenyl-2-thioxothiazolidin-4-one Derivatives, and Their Reactive Oxygen Species Scavenging Activities” (Antioxidants, 2022).
# Key:
# Type in all cases: cell-based, murine
# tyrosinase [1] = test: qRT-PCR of tyrosinase mRNA; conditions: versus non-treated controls, B16F10 cells
# Procedure: (§1) The total RNAs from the cells were purified using the RiboEx Total RNA solution (GeneAll Biotechnology, Seoul, Korea) and the cDNA was synthesized from the total RNA (2 µg) using SuPrimeScript RT Premix with random hexamer (GeNet Bio, Daejeon, Korea), according to the manufacturers’ instructions. Real-time qPCR was performed using SensiFASTTM SYBR® No-ROX dye (Bioline, London, UK) and a CFX Connect System (Bio-Rad Laboratories, Hercules, CA, USA). The qRT-PCR primers that are specifically for tyrosinase, TRP-1, TRP-2, and β-actin were obtained from Bioneer Inc. (Daejeon, Korea). The relative gene expressions were calculated using the standard curve method and β-actin as the internal control.
# tyrosinase [2] = test: Western blot of cytosolic tyrosinase protein; conditions: 2.5–20 µM, 24 h, cytosolic fraction, B16F10 cells
# Procedure: B16F10 cells were treated with five concentrations (0, 2.5, 5, 10, and 20 µM) of analog 2 for 24 h, washed twice with cold PBS, and then harvested. Pellets were then suspended in buffer A [NaBu, β-glycerophosphate, 1 M HEPES, 100 mM MgCl, 500 mM DTT, 100 mM NaF, 10 mM Na-orthovanadate, pepstatin, aprotinin, leupeptin, 1% NP-40, and PMSF], incubated on ice for 20 min, and then centrifuged at 12,000 rpm for 10 min at 4 °C. The supernatants that were obtained contained cytosolic fractions. The pellets were resuspended in buffer B [NaBu, β-glycerophosphate, 1 M HEPES, 5 M NaCl, 10 mM Na-orthovanadate, pepstatin, aprotinin, leupeptin, 100 mM NaF, 100 mM EDTA, and PMSF], incubated on ice for 30 min, and then centrifuged at 12,000 rpm for 20 min at 4 °C. The resultant supernatants contained nuclear fractions.
# Protein concentrations were determined using a BCA™ protein assay kit (Pierce, Rockford, IL, USA). Briefly, lysed samples were boiled for 10 min in gel-loading buffer (0.125 M Tris-HCl, pH 6.8, 4% SDS, 10% 2-mercaptoethanol, and 0.2% bromophenol blue) at a volume ratio of 1:1. […] The western blot data were quantified using CS Analyser 3.2 (Densitograph) image analysis software (http://www.attokorea.co.kr, accessed on 4 March 2022).
# TRP-2 = test: qRT-PCR of TRP-2 mRNA; conditions: versus non-treated controls, B16F10 cells
# Procedure: as §1
# TRP-1 = test: qRT-PCR of TRP-1 mRNA; conditions: versus non-treated controls, B16F10 cells
# Procedure: as §1
smiles,measurement,setting,value
"O=C1/C(=C/c2ccc(O)c(O)c2)SC(=S)N1c1ccccc1 [Analog 2, (Z)-5-(3,4-Dihydroxybenzylidene)-3-phenyl-2-thioxothiazolidin-4-one]",tyrosinase mRNA expression level,tyrosinase [1],significantly and concentration-dependently reduced
same,tyrosinase protein level,tyrosinase [2],significantly and concentration-dependently reduced
same,TRP-2 mRNA expression level,TRP-2,significantly and concentration-dependently reduced
same,TRP-1 mRNA expression level,TRP-1,significantly and concentration-dependently reduced
